Source: patent US7329518B2, “Enzyme for producing optically active pyridineethanol derivatives” (Kaneka Corporation, priority 1999, dated 2008)

B1: FPDH: purified NADH-dependent enzyme from Candida maris IFO 10003 reducing 5-acetylfuro[2,3-c]pyridine to the (R)-alcohol; SEQ ID NO:1 (protein, listed as Candida maris)
chain: MSYNFANKVLIVTGGLSGIGLAVAKKFLQLGAKVTISDISATEKYNTVVGEFKTEGIDVKNVQYIQADASKEADNEKLISETLSAFGDLDYVCANAGIATFTQTTDISYDVWRKVTSINLDGVFMLDKLAAQYFLSKNKPGAIVNMGSIHSYVAAPGLSHYGAAKGGLKLLTQTMALEYAAKGIRVNSVNPGYIKTPLLDICPKEHMDYLITQHPIGRLGKPEEIASAVAFLCSDEATFINGISLLVDGGYTAR

How the values were obtained:
[1] = test system: FPDH; assay: Oxidation activity of FPDH against various compounds as substrates; format: biochemical, Candida maris IFO 10003; conditions: substrate 1 mM; 5-(1-(R)-hydroxyethyl)furo[2,3-c]pyridine = 100%; 0.25 mM NAD+, pH 8.0, 30° C.
Protocol: Further, FPDH was examined for oxidation activity against various compounds. The oxidation activity was measured by allowing the reaction to proceed at 30° C. for 3 minutes in 3.0 ml of a reaction mixture containing 1 mM substrate, 0.25 mM NAD^+, 0.3% (vol/vol) dimethyl sulfoxide and 0.05 ml of the enzyme solution in 100 mM phosphate buffer (pH 8.0) and measuring the increase in absorbance at the wavelength 340 nm. These conditions were employed as standard reaction conditions for oxidizing activity substrate measurement. The enzyme activity reducing 1 μmole of NAD^+ to NADH in one minute under these reaction conditions was defined as 1 unit. The data shown in Table 10 are relative activities with the oxidation activity against the substrate 5-(1-(R)-hydroxyethyl)furo[2,3-c]pyridine being taken as 100%.

[2] = test system: FPDH; assay: Optimal temperature and optimal pH for the activity of FPDH; format: biochemical, Candida maris IFO 10003; conditions: pH varied 3.5 to 9.0; acetate, phosphate and Tris-hydrochloride buffer
Protocol: Hereafter, the reducing activity was measured by allowing the reaction to proceed at 30° C. for 3 minutes in 3.0 ml of a reaction mixture containing 1 mM 5-acetylfuro[2,3-c]pyridine (substrate), 0.25 mM NADH, 0.3% (vol/vol) dimethyl sulfoxide and 0.05 ml of the enzyme solution in 100 mM phosphate buffer (pH 6.5) and measuring the decrease in absorbance at the wavelength 340 nm. These conditions were employed as standard reaction conditions for reducing activity measurement. The enzyme activity oxidizing 1 μmole of NADH to NAD^+ in one minute under these reaction conditions was defined as 1 unit.
Activity measurements were conducted under the standard reaction conditions for reducing activity measurement as described in Example 14 except that the temperature alone was varied from 20 to 80° C.
Activity measurements were conducted under the standard reaction conditions for reducing activity measurement as described in Example 14 while varying the pH within the range of 3.5 to 9.0 using acetate buffer, phosphate buffer and Tris-hydrochloride buffer as the buffer solution.

| Molecule | Relative activity (oxidation activity) [1] | Optimal pH [2] |
| --- | --- | --- |
| CC(O)CCc1ccccc1 (centres unmarked) [4-Phenyl-2-butanol] | 219% |  |
| C[C@@H](O)c1ccccc1 [(R)-1-Phenylethanol] | 225% |  |
| C[C@@H](O)c1cc2ccoc2cn1 [(R)-5-(1-Hydroxyethyl)furo[2,3-c]pyridine] | 100% |  |
| CC(C)O [Isopropanol] | 226% |  |
| B1 |  | 5.0-6.0 |
